One may read the kcat as the number of substrate molecules converted per active site and unit of time at saturation. Usually Km stands for the concentration of substrate that gives half-maximal velocity.

One series has as its target T1, 2-pyrone synthase (Gerbera hybrida, UniProt P48391).
T1 construct: made in house
T1 sequence (P48391 1-402): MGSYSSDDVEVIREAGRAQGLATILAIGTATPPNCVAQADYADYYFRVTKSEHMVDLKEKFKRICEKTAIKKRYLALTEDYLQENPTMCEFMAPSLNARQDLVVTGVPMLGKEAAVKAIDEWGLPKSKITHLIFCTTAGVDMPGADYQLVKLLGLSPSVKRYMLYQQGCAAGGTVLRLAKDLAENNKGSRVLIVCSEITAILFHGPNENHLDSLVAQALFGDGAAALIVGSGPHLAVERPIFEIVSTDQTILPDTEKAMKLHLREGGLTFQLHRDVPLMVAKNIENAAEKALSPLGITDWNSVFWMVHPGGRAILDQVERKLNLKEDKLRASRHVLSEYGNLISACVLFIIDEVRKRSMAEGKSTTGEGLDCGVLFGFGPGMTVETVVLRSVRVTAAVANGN
In words: in vitro enzymology of purified 2-pyrone synthase. The class given is biochemical. The source says:
(§1) To further explore its role in phloroglucinol biosynthesis, PhlD is purified to homogeneity and its in vitro enzymology examined. No activity (Table 1) is observed when acetyl-CoA alone is employed as a substrate. […] For comparison, 2-pyrone synthase, which like PhlD employs an activated 3,5-diketohexanoate 2 (Scheme 1), is purified to homogeneity.

The next series addresses T2, PhlD (Pseudomonas fluorescens, UniProt Q4K418).
T2 construct: made in house
T2 sequence (Q4K418 1-349): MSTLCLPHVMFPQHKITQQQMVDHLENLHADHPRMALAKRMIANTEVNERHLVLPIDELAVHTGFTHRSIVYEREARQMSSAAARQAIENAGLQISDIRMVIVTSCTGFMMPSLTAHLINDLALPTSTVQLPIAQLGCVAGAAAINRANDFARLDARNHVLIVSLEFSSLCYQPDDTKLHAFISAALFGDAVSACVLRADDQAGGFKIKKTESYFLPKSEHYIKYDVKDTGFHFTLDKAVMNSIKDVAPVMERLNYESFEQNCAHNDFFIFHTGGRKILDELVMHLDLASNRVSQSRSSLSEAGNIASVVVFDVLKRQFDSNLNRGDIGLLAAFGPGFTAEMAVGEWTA
In words: in vitro enzymology of purified PhlD. The class given is biochemical, P. fluorescens Pf-5.
Source text: as §1

A further series concerns E. coli strains. In words: end-product inhibition in fed-batch fermentation of phlD-expressing E. coli strains. The class given is cell-based. Conditions: culture medium concentration; data not shown. On the procedure:
Plasmid pJA3.131A (Kan^R, lacI^Q, PT7-phlD, serA) is transfected into chromosomally serA^− E. coli strains BL21(DE3), W3110(DE3), and JWF1(DE3) [i.e. RB791serA^−(DE3)], and into strain KL3(DE3) [i.e. AB2834(serA::aroB)] (E. coli strains RB791 and AB2834 are available from the E. coli Genetic Stock Center, New Haven, Conn., USA). All DE3 strains are obtained by integration of λDE3 prophage into the cell chromosomes. Cells are cultured in fed-batch conditions under mineral salts and limited glucose.
In these tests, phloroglucinol accumulation for all strains stops increasing during the stationary (or maintenance) phase. For BL21 and W3110, the highest phloroglucinol concentration is achieved about 6 hours and about 12 hours, respectively, after initiation of induction, i.e. the first IPTG addition. End-product inhibition is also observed.

Substrate in series [1]: CC(C)(COP(=O)(O)OP(=O)(O)OC[C@H]1O[C@@H](n2cnc3c(N)ncnc32)[C@H](O)[C@@H]1OP(=O)(O)O)[C@@H](O)C(=O)NCCC(=O)NCCSC(=O)CC(=O)O
The experiment in a line: in vitro enzymology of purified PhlD. The series is classed as biochemical, P. fluorescens Pf-5. Conditions: other: substrate of PhlD purified to homogeneity.
Source text: as §1

Substrate in series [2]: CC(=O)SCCNC(=O)CCNC(=O)[C@H](O)C(C)(C)COP(=O)(O)OP(=O)(O)OC[C@H]1O[C@@H](n2cnc3c(N)ncnc32)[C@H](O)[C@@H]1OP(=O)(O)O
The experiment in a line: in vitro enzymology of purified 2-pyrone synthase. The class given is biochemical, Gerbera hybrida. Conditions: other: substrate of 2-pyrone synthase purified to homogeneity.
Source text: as §1

“2-pyrone synthase: 2-pyrone synthase from Gerbera hybrida, converts malonyl-CoA into triacetic acid lactone; comparison enzyme”: the kcat with 2-pyrone synthase (2-pyrone synthase purified to homogeneity) came out at 0.055 s⁻¹. Regarding `CC(=O)SCCNC(=O)CCNC(=O)[C@H](O)C(C)(C)COP(=O)(O)OP(=O)(O)OC[C@H]1O[C@@H](n2cnc3c(N)ncnc32)[C@H](O)[C@@H]1OP(=O)(O)O` [acetyl-CoA], the “specific activity with malonyl-CoA and acetyl-CoA relative to only malonyl-CoA” value at PhlD (PhlD incubated with malonyl-CoA and acetyl-CoA) is reported as “Approximately equal”. Also, the activity as substrate entry at PhlD (employed alone as a substrate of PhlD) is reported as “No activity”; on 2-pyrone synthase (acetyl-CoA as a substrate of 2-pyrone synthase), “unable to use acetyl-CoA as a substrate”. For the same molecule, on 2-pyrone synthase (2-pyrone synthase incubated with malonyl-CoA and acetyl-CoA), the “specific activity with malonyl-CoA and acetyl-CoA relative to malonyl-CoA in the absence of acetyl-CoA” value is on record as “twofold higher”. `Oc1cc(O)cc(O)c1` [phloroglucinol, 1,3,5-trihydroxybenzene]: the “concentration at which phloroglucinol is responsible for end-product inhibition” value with E. coli strains is ≥ 2 g/L.

B1: PhlD (Pseudomonas protegens Pf-5) (protein)
chain: T2 sequence (Q4K418 1-349)
notes: made in house
As for B1, in series [1], the Michaelis-Menten constant (Km) amounted to 37 µM.

B2: PhlD: phloroglucinol synthase expressed from phlD gene of P. fluorescens Pf-5, SEQ ID NO:2 (protein)
chain: T2 sequence (Q4K418 1-349)
modifications: Pseudomonas fluorescens Pf-5
As to B2, in the series with PhlD (PhlD purified to homogeneity, malonyl-CoA substrate), the kcat is 0.0783 s⁻¹.

B3: 2-pyrone synthase (Gerbera hybrid cultivar) (protein)
chain: T1 sequence (P48391 1-402)
notes: made in house
On to B3, for which, in series [2], the Km amounted to 2.2 µM.
